Test results taken from patent publication US5635534A, “Aromatic amino-alcohol derivatives having anti-diabetic and anti-obesity properties, their preparation and their therapeutic uses” (Sankyo Company, Limited, priority 1991, dated 1997).
Counter-ions that a name gives are not always drawn. Like-named read-outs stand apart in the source and are kept apart here.

Legend:
[1] = test system: male mice of the ddY strain; assay: Toxicity, oral administration to mice, one week observation; format: in vivo, mouse; conditions: 300 mg/kg oral; for survival at the end of the period of observation: groups of 3, one week; for abnormalities which could be attributed to the test compounds: groups of 3, one week observation
Procedure: The test animals employed were male mice of the ddY strain. The animals were employed in groups of 3. The test compound was administered orally to each animal group at a dose of 300 mg/kg body weight. The compounds employed were those prepared as described in Examples 1, 3, 8, 24, 47 and 48.

KK male mice = assay: Hypoglycemic effect during glucose load in mice; format: in vivo, mouse; conditions: 1 mg/kg oral, 4 mice; for inhibition in vivo at 1 mg/kg: Mus musculus, po
Procedure: Hypoglycemic effect during glucose load
The hypoglycemic effect of the compounds of the present invention during glucose load in mice was measured as follows.
Three month old KK male mice, each weighing 28 to 30 g, were fasted overnight, and then 1 mg/kg of the compound to be tested or carboxymethylcellulose (CMC) as a control was administered orally. After 60 minutes, 1.2 g/kg of D-glucose was administered subcutaneously. Then, at 60 and 120 minutes after the subcutaneous glucose injection, blood samples were taken, and the glucose levels were determined by means of a glucose analyzer (GL-101, a product of Mitsubishi Kasei, Co.). The hypoglycemic rates (R) of the test compound during the glucose load were calculated according to the following equation: […]
A: Blood glucose level in the group administered CMC
B: Blood glucose level in the group administered a test sample.

[2] = target: T1, Bovine lens aldose reductase (Bos taurus, UniProt P16116); assay: Inhibition of Aldose reductase; format: biochemical; conditions: for inhibition at 5 µg/mL: 5 μg/ml
T1 construct: Bovine lens aldose reductase was separated and partially purified; from tissue; host or cells: bovine lens
Procedure: Inhibition of Aldose reductase
Bovine lens aldose reductase was separated and partially purified by the method of S. Hyman and J. H. Kinoshita [J. Biol. Chem., 240, 877 (1965)] and K. Inagaki, I. Miwa and J. Okuda [Arch. Biochem. Biophys., 316, 337 (1982)], and its activity was determined photometrically by the method of Varma et al. [Biochem. Pharmac., 25, 2505 (1976)]. Inhibition of enzyme activity was measured for the compounds of the present invention at a concentration of 5 μg/ml, and the results are shown in the following Table 10.

[3] = 1 h, 60 min after subcutaneous glucose 1.2 g/kg, read-out: Hypoglycemic rate during glucose load, 60 min.
[4] = 2 h, 120 min after subcutaneous glucose 1.2 g/kg, read-out: Hypoglycemic rate during glucose load, 120 min.

Structure (SMILES) | inhibition in vivo at 1 mg/kg (KK male mice; [3]) [%] | inhibition in vivo at 1 mg/kg (KK male mice; [4]) [%] | other results
CC(COc1ccc(CO)cc1)NCC(O)c1cccc(Cl)c1 (stereo not shown) [Example 1, 2-[2-(4-Hydroxymethylphenoxy)-1-methylethyl]-amino-1-(3-chlorophenyl)ethanol] |  |  | survival at the end of the period of observation [1]: All animals were alive; abnormalities which could be attributed to the test compounds [1]: no abnormalities
COC(=O)Cc1ccc(OCC(C)NCC(O)c2cccc(Cl)c2)cc1 (stereo not shown) [Example 3, 2-[2-(4-Methoxycarbonylmethylphenoxy)-1-methylethyl]-amino-1-(3-chlorophenyl)ethanol] | 67.3 | 56.5 | 
COC(=O)C(O)Cc1ccc(OCC(C)NCC(O)c2cccc(Cl)c2)cc1 (stereo not shown) [Example 6, 2-{2-[4-(2-Methoxycarbonyl-2-hydroxyethyl)phenoxy]-1-methylethyl}amino-1-(3-chlorophenyl)ethanol] | 43.4 | 40.5 | 
CC(COc1ccc(CCO)cc1)NCC(O)c1cccc(Cl)c1 (stereo not shown) [Example 8, 2-{2-[4-(2-Hydroxyethyl)phenoxy]-1-methylethyl}amino-1-(3-chlorophenyl)ethanol] | 56.8 | 45.1 | 
COC(=O)Cc1ccc(OCC(C)NCC(O)c2cccc(Cl)c2)cc1 (stereo not shown) [Example 24, 2-[2-(4-Methoxycarbonylmethylphenoxy)-1-methylethyl]amino-1-(3-chloropbenyl)ethanol fumarate] |  |  | Hypoglycemic rate during glucose load, 60 min. (KK male mice; 60 min after subcutaneous glucose 1.2 g/kg): 61.4%; Hypoglycemic rate during glucose load, 120 min. (KK male mice; 120 min after subcutaneous glucose 1.2 g/kg): 56.9%
COC(=O)Cc1ccc(OC[C@@H](C)NC[C@H](O)c2ccccc2)cc1 [Example 27, 2-[2-(4-Methoxycarbonylmethylphenoxy)-1(R)-methylethyl]amino-1(R)-phenylethanol] | 68.4 | 52.1 | 
CC(COc1ccc(CC(=O)NO)cc1Cl)NCC(O)c1cccc(Cl)c1 (stereo not shown) [Example 34, 2-{2-[2-Chloro-4-(N-hydroxycarbamoylmethyl)phenoxy]-1-methylethyl}amino-1-(3-chlorophenyl)ethanol] |  |  | IC50 [2]: 6.05 µM; inhibition at 5 µg/mL [2]: 63.3%
CC(COc1ccc(CC(=O)O)cc1Cl)NCC(O)c1cccc(Cl)c1 (stereo not shown) [Example 36, 2-[2-(4-Carboxymethyl-2-chlorophenoxy)-1-methylethyl]amino-1-(3-chlorophenyl)ethanol] |  |  | IC50 [2]: 7.28 µM; inhibition at 5 µg/mL [2]: 60.4%
COC(=O)Cc1ccc(OCC(C)NCC(O)c2cc(Cl)cc(Cl)c2)cc1 (stereo not shown) [Example 40, 2-[2-(4-Methoxycarbonylmethylphenoxy)-1-methylethyl]amino-1-(3,5-dichlorophenyl)ethanol] | 37.9 | 24.5 | 
COC(=O)Cc1ccc(OCC(C)NCC(O)c2ccc(F)c(Cl)c2)cc1 (stereo not shown) [Example 41, 2-[2-(4-Methoxycarbonylmethylphenoxy)-1-methylethyl]amino-1-(3-chloro-4-fluorophenyl)ethanol] | 50.1 | 43 | 
COC(=O)Cc1ccc(OCC(C)NCC(O)c2cccc(Br)c2)cc1 (stereo not shown) [Example 42, 2-[2-(4-Methoxycarbonylmethylphenoxy)-1-methylethyl]amino-1-(3-bromophenyl)ethanol] | 60.9 | 57.6 | 
COC(=O)Cc1ccc(OCC(C)NCC(O)c2cccc(C(F)(F)F)c2)cc1 (stereo not shown) [Example 43, 2-[2-(4-Methoxycarbonylmethylphenoxy)-1-methylethyl]amino-1-(3-trifluoromethylphenyl)ethanol] | 66.5 | 58.6 | 
COC(=O)Cc1ccc(OCC(C)NCC(O)c2cccc(OC)c2)cc1 (stereo not shown) [Example 44, 2-[2-(4-Methoxycarbonylmethylphenoxy)-1-methylethyl]amino-1-(3-methoxyphenyl)ethanol] | 38.1 | 24.8 | 
COC(=O)Cc1ccc(OC[C@@H](C)NC[C@H](O)c2cccc(Cl)c2)cc1.O=C(O)/C=C/C(=O)O [Example 47, 2-[2-(4-Methoxycarbonylmethylphenoxy)-1(R)-methylethyl]amino-1(R)-(3-chlorophenyl)ethanol fumarate] | 60.9 | 51.5 | survival at the end of the period of observation [1]: All animals were alive; abnormalities which could be attributed to the test compounds [1]: no abnormalities
C[C@H](COc1ccc(CC2SC(=O)NC2=O)cc1)NC[C@H](O)c1cccc(Cl)c1 (stereo partly drawn) [Example 48, 5-[4-{2(R)-[2(R)-(3-Chlorophenyl)-2-hydroxyethylamino]propoxy}benzyl]thiazolidine-2,4-dione] |  |  | inhibition at 5 µg/mL [2]: 47.5%
